From patent US20200222474A1, “COMPOSITIONS AND METHODS FOR INCREASING PHYTOCHEMICAL BIOAVAILABLITY AND BIOACTIVITY” (North Carolina State University, priority 2017, published 2020)

Tests used:
L. acidophilus NCFM = test: Growth of L. acidophilus NCFM on plant glycosides as single carbon source (OD600); assay type: cell-based, Lactobacillus acidophilus; conditions: SDM + 1% (w/v) carbohydrate (0.5% esculin), 37° C., 30 hours; corrected to medium without carbohydrate
Procedure: For initial growth and gene expression studies, L. acidophilus NCFM was propagated three times in semi-defined medium (SDM) supplemented with either 1% or 0,5% (w/v) of the plant glycoside or carbohydrate (Table 1). For the RNA-seq analysis, cells were harvested by centrifugation (3,220×10 min, 25° C.) in the mid-exponential phase (OD600=0.6-0.8) and stored at −80° C. for subsequent RNA isolation. For the mass spectrometry metabolite analyses, 200 μt samples were taken at 0, 3, 6, 9, 12, and 24 hours of growth; cells were removed by centrifugation; and supernatants were stored at −80° C. for further analysis.
(§1) Phenotypic growth assays were performed using 1% (v/v) overnight cultures of L. acidophilus strains (Table 2) and other Lactobacillus species (Table 3) grown on SDM supplemented with 1% (w/v) glucose to inoculate 200 μL of SDM supplemented with 1% (w/v) of the examined carbohydrate (0.5% in the case of esculin) in 96-well microplate wells (Corning Costar, Corning, N.Y., USA) in duplicate or triplicate wells, respectively. The microplates were sealed with clear adhesive film, incubated at 37° C. in a Fluostar Optima microplate reader (BMG Labtech, Cary, N.C., USA), and the cell optical density (OD600) was monitored for 30 hours.
The growth of L. acidophilus NCFM was evaluated on twelve chemically diverse, nutritionally relevant and/or therapeutically active PGs 1; Table 1). FIG. 1A provides the structures and common sources of plant glycoside substrates described herein. The compounds that support growth of Lactobacillus acidophilus are in green. RI: β-D-Glcp; R2: Gentiobioside (β-D-Glcp-(1,6)-D-Glcp); R3: Rutinoside (α-L-Rhaf-(1,6)-D-Glcp). The graph in FIG. 1B depicts plant glycoside utilization analyzed by mass spectrometry and the growth as the maximum OD600. Due to the low solubility of polydatin, OD600 cannot be used as a growth metric and utilization of this compound is confirmed by the production of lactate as well as a high utilization level based on the metabolite analysis.

NCK2424 (ΔLBA0726) = test: Phenotypic growth analysis of deletion mutant (phospho-β-glucosidase); assay type: cell-based, Lactobacillus acidophilus; conditions: compared with background Δupp strain
Procedure: as §1
Construction of gene deletion mutants. The L. acidophilus NCFM genes LBA0225 and LBA0726, both encoding P-Bgl of glycoside hydrolase family 1 (GH1) enzymes in addition to the LBA0227 and LBA0725 genes encoding an EIIC and an EIICBA components of two PTS systems, respectively, were deleted using the upp-based counterselectable gene replacement system. Briefly, in-frame deletions were constructed by amplifying 650-750 bp of the up- and downstream flanking regions of the deletion targets with two primer pairs (e.g., LBA0225A/LBA0225B and LBA0225C/LBA0225D; Table 4). The resulting purified products were joined by splicing using overlap extension PCR (SOE-PCR63) and amplified to establish the deletion alleles. The SOE-PCR products, that include flanking restriction enzyme sites, were cloned within the BamHI and SacI/EcoRI sites of the pTRK935 integration vector and transformed into E. coli EC101. […]
To establish the functional significance of these two loci, single deletions of each PTS EII and P-Bgl gene, and a double deletion of both P-Bgl genes were constructed using the upp-based counter-selectable gene replacement system (Table 2) and the growth phenotypes of the mutant strains were analyzed (FIG. 3). […]

L. acidophilus LA-1 = test: Phenotypic growth assay (OD600); assay type: cell-based; conditions: SDM + 1% (w/v) carbohydrate (0.5% esculin), 37° C., 30 hours; corrected to medium without carbohydrate
Procedure: as §1

L. animalis DSM 20602 = test: Phenotypic growth assay (OD600); assay type: cell-based; conditions: SDM + 1% (w/v) carbohydrate (0.5% esculin), 37° C., 30 hours; corrected to medium without carbohydrate
Procedure: as §1

L. helveticus CNRZ32 = test: Phenotypic growth assay (OD600); assay type: cell-based; conditions: SDM + 1% (w/v) carbohydrate (0.5% esculin), 37° C., 30 hours; corrected to medium without carbohydrate
Procedure: as §1

[1] = system: L. intestinalis Th4, ATCC 49335, DSM 6629; test: Phenotypic growth assay (OD600); assay type: cell-based; conditions: SDM + 1% (w/v) carbohydrate (0.5% esculin), 37° C., 30 hours; corrected to medium without carbohydrate
Procedure: as §1

[2] = system: L. jensenii ATCC 25258, 62G, DSM 20557; test: Phenotypic growth assay (OD600); assay type: cell-based; conditions: SDM + 1% (w/v) carbohydrate (0.5% esculin), 37° C., 30 hours; corrected to medium without carbohydrate
Procedure: as §1

L. gasseri ATCC 33323 = test: Phenotypic growth assay (OD600); assay type: cell-based; conditions: SDM + 1% (w/v) carbohydrate (0.5% esculin), 37° C., 30 hours; corrected to medium without carbohydrate
Procedure: as §1

L. fermentum ATCC 14931 = test: Phenotypic growth assay (OD600); assay type: cell-based; conditions: SDM + 1% (w/v) carbohydrate (0.5% esculin), 37° C., 30 hours; corrected to medium without carbohydrate
Procedure: as §1

[3] = system: L. crispatus ATCC 33820, DSM 20584; test: Phenotypic growth assay (OD600); assay type: cell-based; conditions: SDM + 1% (w/v) carbohydrate (0.5% esculin), 37° C., 30 hours; corrected to medium without carbohydrate
Procedure: as §1

[4] = system: L. plantarum sp. plantarum ATCC 14917, LA70; test: Phenotypic growth assay (OD600); assay type: cell-based; conditions: SDM + 1% (w/v) carbohydrate (0.5% esculin), 37° C., 30 hours; corrected to medium without carbohydrate
Procedure: as §1

[5] = system: L. amyloverus ATCC 33620, DSM 20531; test: Phenotypic growth assay (OD600); assay type: cell-based; conditions: SDM + 1% (w/v) carbohydrate (0.5% esculin), 37° C., 30 hours; corrected to medium without carbohydrate
Procedure: as §1

[6] = system: L. reuteri (ATCC 23272, DSM 20016); test: Phenotypic growth assay (OD600); assay type: cell-based; conditions: SDM + 1% (w/v) carbohydrate (0.5% esculin), 37° C., 30 hours; corrected to medium without carbohydrate
Procedure: as §1

[7] = system: L. rhanmosus GG (ATCC 53103); test: Phenotypic growth assay (OD600); assay type: cell-based; conditions: SDM + 1% (w/v) carbohydrate (0.5% esculin), 37° C., 30 hours; corrected to medium without carbohydrate
Procedure: as §1

L. johnsonii ATCC 33200 = test: Phenotypic growth assay (OD600); assay type: cell-based; conditions: SDM + 1% (w/v) carbohydrate (0.5% esculin), 37° C., 30 hours; corrected to medium without carbohydrate
Procedure: as §1

NCK2422 (ΔLBA0725) = test: Phenotypic growth analysis of deletion mutant (PTS EIICBA); assay type: cell-based, Lactobacillus acidophilus
Procedure: as §1
Construction of gene deletion mutants. The L. acidophilus NCFM genes LBA0225 and LBA0726, both encoding P-Bgl of glycoside hydrolase family 1 (GH1) enzymes in addition to the LBA0227 and LBA0725 genes encoding an EIIC and an EIICBA components of two PTS systems, respectively, were deleted using the upp-based counterselectable gene replacement system. Briefly, in-frame deletions were constructed by amplifying 650-750 bp of the up- and downstream flanking regions of the deletion targets with two primer pairs (e.g., LBA0225A/LBA0225B and LBA0225C/LBA0225D; Table 4). The resulting purified products were joined by splicing using overlap extension PCR (SOE-PCR63) and amplified to establish the deletion alleles. The SOE-PCR products, that include flanking restriction enzyme sites, were cloned within the BamHI and SacI/EcoRI sites of the pTRK935 integration vector and transformed into E. coli EC101. The resulting recombinant plasmids (pTRK1113-6) were confirmed by DNA sequencing and electroporated into L. acidophilus NCK1910 (Table 2) that contains the pTRK669 helper plasmid, and the recovery of the single- and double-crossover recombinants was performed as previously described. Recombinants carrying the new gene deletion alleles were isolated by colony PCR using primer pairs denoted up/down (e.g., LBA0225up/LBA0225down), which anneal to the flanking regions of the amplicons. Sequence integrity and in-frame deletions were verified by DNA sequencing employing the aforementioned primer pairs and primer denoted mid (e.g., LBA0225mid). The mutations were in-frame deletions of 90-96% of the coding regions.
To establish the functional significance of these two loci, single deletions of each PTS EII and P-Bgl gene, and a double deletion of both P-Bgl genes were constructed using the upp-based counter-selectable gene replacement system (Table 2) and the growth phenotypes of the mutant strains were analyzed (FIG. 3). Phenotypic growth analyses of deletion mutants of EII PTS transporters (FIGS. 3A, 3C, 3E, 3G, and 3I) and phospho-β-glucosidase (FIGS. 3B, 3D, 3F, 3H, and 3J) on the β-glucosides esculin, salicin, amygdalin and the disaccharides gentiobiose and cellobiose. The background Aupp strain is shown as a grey fill graph and the growth of the mutant strains is shown as: PTS EIIC (LBA0227, pink triangle), the phospho-β-glucosidase (LBA0225, light blue triangles), the PTS EIICBA (LBA0725, yellow squares), the second phospho-β-glucosidase (LBA0726, lilac squares) and the double phospho-β-glucosidase mutant (LBA0225/LBA0726, black stars). The color scheme is consistent with that used for the gene loci in FIG. 2.

With O=C[C@H](O)[C@@H](O)[C@H](O[C@@H]1O[C@H](CO)[C@@H](O)[C@H](O)[C@H]1O)[C@H](O)CO [Cellobiose, reference compound] the “Growth (OD600 max class) of L. acidophilus NCFM” value (L. acidophilus NCFM) was “++ (“++” signifies 0.6 > OD600 max > 0.3.)”, the “growth of the ΔLBA0726 mutant (P-Bgl)” value (NCK2424 (ΔLBA0726)) was “unaffected” and the “Growth (OD600 max class) of L. acidophilus LA-1” value (L. acidophilus LA-1) was “+++ (“+++” signifies OD600 max > 0.6.)”. For the same molecule, the “Growth (OD600 max class) of L. animalis DSM 20602” value (L. animalis DSM 20602) was “+ (“+” signifies 0.3 > OD600 max > 0.1.)”, the “Growth (OD600 max class) of L. helveticus CNRZ32” value (L. helveticus CNRZ32) was “+ (“+” signifies 0.3 > OD600 max > 0.1.)” and the “Growth (OD600 max class) of L. intestinalis Th4, ATCC 49335, DSM 6629” value [1] was “− (“−” signifies OD600 max < 0.1.)”. For the same molecule, the “Growth (OD600 max class) of L. jensenii ATCC 25258, 62G, DSM 20557” value [2] was “++ (“++” signifies 0.6 > OD600 max > 0.3.)”, the “Growth (OD600 max class) of L. gasseri ATCC 33323” value (L. gasseri ATCC 33323) was “++ (“++” signifies 0.6 > OD600 max > 0.3.)” and the “Growth (OD600 max class) of L. fermentum ATCC 14931” value (L. fermentum ATCC 14931) was “− (“−” signifies OD600 max < 0.1.)”. The “Growth (OD600 max class) of L. crispatus ATCC 33820, DSM 20584” value [3] was “− (“−” signifies OD600 max < 0.1.)”, the “Growth (OD600 max class) of L. plantarum sp. plantarum ATCC 14917, LA70” value [4] was “+++ (“+++” signifies OD600 max > 0.6.)” and the “Growth (OD600 max class) of L. amyloverus ATCC 33620, DSM 20531” value [5] was “+++ (“+++” signifies OD600 max > 0.6.)”. For the same molecule, the “Growth (OD600 max class) of L. reuteri (ATCC 23272, DSM 20016)” value [6] was “− (“−” signifies OD600 max < 0.1.)”, the “Growth (OD600 max class) of L. rhanmosus GG (ATCC 53103)” value [7] was “+++ (“+++” signifies OD600 max > 0.6.)” and the “Growth (OD600 max class) of L. johnsonii ATCC 33200” value (L. johnsonii ATCC 33200) was “+ (“+” signifies 0.3 > OD600 max > 0.1.)”. For the same molecule, the “reduction of growth on inactivation of the EIICBA (LBA0725)” value (NCK2422 (ΔLBA0725)) was “about 50%” and the “growth of the ΔLBA0725 mutant (inactive PTS EIICBA)” value (NCK2422 (ΔLBA0725); compared with background Δupp strain) was “moderately reduced”.
